Reference: PubChem BioAssay (NCI)
Several values for one entry are separate records, joined by “and”; a condition that tells them apart may be missing. Equal values may be shown once.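 In this assay, cells in 96-well plates receive the compound at five concentrations for 48 hours. Endpoints are linearly interpolated between the surrounding concentrations. GI50 is the concentration that inhibits growth by half. The concentration for full growth arrest is given as TGI.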

Key:
Assay in all cases: NCI tumour cell line growth inhibition, 48 h
[1] = test system: 786-0 renal
[2] = test system: SF-268 CNS
[3] = test system: MDA-MB-435
[4] = test system: MOLT-4 leukemia
[5] = test system: RPMI-8226 leukemia
[6] = test system: SNB-75 CNS
[7] = test system: SK-OV-3 ovarian
[8] = test system: MDA-MB-231 breast
[9] = test system: OVCAR-5 ovarian
[10] = test system: HOP-92 NSCLC

| SMILES | GI50 [1] | TGI [1] [µM] | GI50 [2] | TGI [2] [µM] | GI50 [3] | TGI [3] [µM] | GI50 [4] [µM] | TGI [4] [µM] | GI50 [5] | TGI [5] [µM] | GI50 [6] | GI50 [7] | TGI [7] [µM] | GI50 [8] | GI50 [9] [µM] | TGI [9] [µM] | GI50 [10] | TGI [10] | TGI [6] [µM] | TGI [8] [µM] |
| --- | --- | --- | --- | --- | --- | --- | --- | --- | --- | --- | --- | --- | --- | --- | --- | --- | --- | --- | --- | --- |
| CC(=O)N[C@H](C)[C@@H](O)[C@@H](C)[C@@H]1OC(=O)/C=C/C=C(C)\C=C\[C@]2(C)C[C@@H](NS(C)(=O)=O)C=C[C@@H]2/C=C(C)/C=C/[C@H]1C | 0.0469 µM and 0.0185 µM | > 43.5 | 0.357 µM and 0.0531 µM | > 43.5 | 2.68 nM and 4.35 nM | > 43.5 | > 43.5 | > 43.5 | 7.66 nM and 15.3 nM | > 43.5 | 1.77 nM and 8.88 nM | 0.00446 µM and 0.00599 µM | 0.0397 | 0.00125 µM and 0.0046 µM | > 43.5 | > 43.5 | 1.26 nM and 4.35 nM | 0.0297 µM and 0.0256 µM | – | – |
| Cc1c2cnccc2c(C)c2c1c1cc(O)ccc1n2C(C)C | 1.7 µM | 4.53 | 1.18 µM | 3.62 | 1040 nM | 2.29 | 0.289 | 1.26 | 1050 nM | 3.19 | 1200 nM | 0.709 µM | 5.55 | 1.51 µM | 2.42 | 9.46 | 2110 nM | 7.28 µM | 2.46 | 7.58 |
| Cc1cc(F)c(C(=O)Nc2cccc(-c3nncn3C(C)C)n2)cc1-n1cnc(C2CC2)c1 | 17.1 µM | > 100 | 21.5 µM | > 100 | 11400 nM | > 100 | 10.1 | 54.2 | 7540 nM | 35.3 | 10300 nM | 24.5 µM | > 100 | 18.1 µM | 19.9 | > 100 | 8230 nM | > 100 µM | 64.3 | 91.5 |
| Nc1nc(N)c2c(n1)NC(c1sc(Cl)nc1Cl)CC(c1ccccc1)=N2 (stereo not drawn) | 5.05 µM | 19.2 | 5.68 µM | 22.5 | 1470 nM | 10.2 | 4.06 | 20.8 | 4990 nM | 31.5 | 1630 nM | 3.6 µM | 15.3 | 3.86 µM | 10.2 | 21.9 | 3720 nM | 18 µM | 7.59 | 16.5 |
| CC/C=C\C[C@H]1C/C=C2/C(=O)C=C[C@H]2C/C=C\CCCC(=O)O1 | 3.24 µM | 10.2 | 3.77 µM | 17.8 | 1660 nM | 6.04 | 1.84 | 25.1 | 1590 nM | 4.82 | 1560 nM | 5.67 µM | 13.1 | 3.23 µM | 3.99 | 16.8 | 2530 nM | 10.1 µM | 8.74 | 14.8 |
| COc1ccc(-n2cc(-c3cc(OC)c(OC)c(OC)c3)nc2SCc2ccc(Cl)cc2)cc1OC | > 100 µM | > 100 | > 100 µM | > 100 | > 100000 nM | > 100 | > 100 | > 100 | > 100000 nM | > 100 | 9820 nM | > 100 µM | > 100 | > 100 µM | > 100 | > 100 | 65500 nM | > 100 µM | > 100 | > 100 |
